Reference: patent publication EP0728482A2, “Use of hcp specific compounds to enhance erythropoiesis” (SMITHKLINE BEECHAM CORPORATION, priority 1995, dated 1996)

Target: T1, human src SH2 domain (Homo sapiens, UniProt P12931)
T1 construct: made in house; host or cells: E. coli AR120
Test: ELISA-based SH2 domain / pY peptide binding assay, src SH2 domain
Protocol: The inhibitory activity of compounds at the different human SH2 domains was determined in vitro using SH2 domains expressed as fusion proteins in E. coli. The SH2 domains used herein were the human forms of the src SH2 domain, Grb2 SH2 domain, lck SH2 domain, fyn SH2 domain, SH-PTP2 SH2 domain, p85 SH2 domain and hcp SH2 domain.
The fusion proteins containing the src, lck and hcp SH2 domains were expressed as the general sequence: DET1-DET2-spacer-ek-SH2, where DET1, DET2, spacer, ek and SH2 are as described below. DET1 ("defined epitope tag 1") (SEQ ID NO: 1) is an 11 amino acid sequence found in the Human Immunodeficiency Virus Type 1 (HIV-1) envelope protein gp120 (or gp160). Monoclonal antibodies to various epitopes of HIV-1 gp120 (or gp 160) are known in the art, see, for example U.S. Patent 5,166,050. One preferred example is monoclonal antibody 178.1 (see, e.g., Thiriart et al., J. Immunol., 143:1832-1836 (1989)), which was prepared by immunization of mice with a yeast-expressed HIV-1 gp160 molecule from strain BH10 (Ratner et al., Nature, 313:277-284 (1985)). This tag was used for detection of expression (by Western blot), for purification of the protein (by affinity chromatography), and for configuring assays in which the fusion protein was captured or immobilized using the 178.1 antibody. DET2 is a hexa-histidine sequence tag (SEQ ID NO: 2) which binds to nickel-containing resins and was used for purification purposes. Spacer (SEQ ID NO: 3) was utilized to design a BamH1 restriction site at the indicated position of the construct. The term -ek-refers to a recognition sequence (SEQ ID NO: 4) for the enterokinase protease which provides for the optional removal of the tags from the SH2 domain, thus producing an SH2 domain that contains no extraneous amino acids. SH2 domains which contain no extraneous amino acids are preferable to tagged protein for crystallography studies. SH2 refers to the SH2 domains of different proteins.
Procedure 2: Cloning, expression and purification of human src SH2 domain containing tags and an enterokinase proteolytic cleavage site (DET1-DET2-spacer-ek-src SH2).
A DNA sequence encoding protein ek-src SH2 was PCR amplified from a cDNA clone containing the human src gene (c-src SH2 DNA sequence identical to that described in Takeya,T. and Hanafusa, H, 1983 Cell 32:881-890) using the following primers: [formula]
The PCR product was digested with BamHI and XbaI, followed by isolation of the digested fragment on an agarose gel. The fragment was ligated into BamHI-XbaI-digested expression vector containing the tagged chicken src gene DET1-DET2-spacer-SH2 described in Procedure 1 above. In that vector, the BamHI site is located between the coding regions for DET2 and SH2, and the XbaI site is located after the 3' end of the SH2 coding region. The ligation reaction was used to transform E. coli MM294cI^+. The construct DET1-DET2-spacer-ek-src SH2 was confirmed by DNA sequencing (SEQ ID NO: 5) and induced in E. coli strain AR120 as described in Procedure 1 above. A Coomassie-Blue-stained, Western-blot-positive induced protein band with an apparent molecular weight of 16,000 was observed after nalidixic acid induction.
Cells were lysed at neutral pH by sonication in the presance of lysozyme. After centrifugation, the soluble extract was chromatographed on a Ni^++NTA column. After washing the column with equilibration buffer (Tris buffer pH 8 containing 0.5 M Nacl) and the same buffer containing 15 mM imidazole, the protein was eluted in highly purified form with 25 mM imidazole in equilibration buffer.
The binding assays for the SH2 domains and pY peptides were performed in an ELISA-based 96 well plate assay. […]

T1 sequence (P12931 148-251): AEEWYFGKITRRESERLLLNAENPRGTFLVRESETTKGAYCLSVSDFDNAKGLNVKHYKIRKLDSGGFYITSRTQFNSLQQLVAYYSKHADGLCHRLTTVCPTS

CCCCCCNC(=O)[C@H]1CC[C@H](CNC(=O)c2ccc(C(=O)c3ccc(C(=O)O)cc3)cc2)CC1 [Compound 6, 4-carboxy-benzophenone-4-carboxamido-trans-4-methyl-cyclohexyl-N-hexyl carboxamide]
Ki (Ki calculated from IC50 with the expanded equation): 13 µM
IC50 (inhibition of binding of 0.1 uM biotinylated pY peptide to SH2 domain fusion protein): 20 µM
